In ChEMBL document CHEMBL4014287, “Jesridonin in combination with paclitaxel demonstrates synergistic anti-tumor activity in human esophageal carcinoma cells” (Bioorg Med Chem Lett, 2017):
The source made the active and inactive calls. The rule behind the calls is not given here.

Assays:
[1] = tested on: ECa-109 cell line; assay: Antitumor activity against human EC109 cells xenografted in nude mouse assessed as induction of necrosis at 5 mg/kg measured after 21 days by H and E staining based assay; assay type: functional, organism-based
[2] = tested on: ECa-109 cell line; assay: Cytotoxicity against human EC109 cells assessed as reduction in cell viability after 24 hrs by MTT assay; assay type: functional, cell-based
[3] = tested on: ECa-109 cell line; assay: Induction of apoptosis in human EC109 cells assessed as early apoptotic cells at 5 nM after 24 hrs by Annexin V-FITC/propidium iodide staining based flow cytometry (reference value: 1.3%); assay type: functional
[4] = tested on: Mus musculus; assay: Toxicity in nude mouse xenografted with human EC109 cells assessed as body weight loss at 5 mg/kg measured after 21 days; assay type: organism-based; settings: in vivo, 504 h
[5] = tested on: ECa-109 cell line; assay: Induction of apoptosis in human EC109 cells assessed as nuclear shrinkage at 5 nM after 24 hrs by Hochest 33258 staining based fluorescent microscopic analysis; assay type: functional, cell-based
[6] = tested on: Mus musculus; assay: Toxicity in nude mouse xenografted with human EC109 cells assessed as skin ulceration at 5 mg/kg measured after 21 days; assay type: organism-based; settings: in vivo, 504 h
[7] = tested on: Mus musculus; assay: Toxicity in nude mouse xenografted with human EC109 cells assessed as pathological changes at 5 mg/kg measured after 21 days; assay type: organism-based; settings: in vivo, 504 h
[8] = tested on: ECa-109 cell line; assay: Induction of apoptosis in human EC109 cells assessed as necrotic cells at 5 nM after 24 hrs by Annexin V-FITC/propidium iodide staining based flow cytometry (reference value: 1.6 %); assay type: functional
[9] = tested on: ECa-109 cell line; assay: Induction of apoptosis in human EC109 cells assessed as viable cells at 5 nM after 24 hrs by Annexin V-FITC/propidium iodide staining based flow cytometry (reference value: 96.1%); assay type: functional; settings: ECa-109, 24 h, read-out: Activity
[10] = tested on: ECa-109 cell line; assay: Induction of apoptosis in human EC109 cells assessed as nuclear condensation at 5 nM after 24 hrs by Hochest 33258 staining based fluorescent microscopic analysis; assay type: functional, cell-based
[11] = tested on: ECa-109 cell line; assay: Induction of apoptosis in human EC109 cells assessed as late apoptotic cells at 5 nM after 24 hrs by Annexin V-FITC/propidium iodide staining based flow cytometry (reference value: 1%); assay type: functional

CC(=O)O[C@H]1C(=O)[C@@]2(C)[C@H]([C@H](OC(=O)c3ccccc3)[C@]3(O)C[C@H](OC(=O)[C@H](O)[C@@H](NC(=O)c4ccccc4)c4ccccc4)C(C)=C1C3(C)C)[C@]1(OC(C)=O)CO[C@@H]1C[C@@H]2O [PACLITAXEL]
Activity [1]: Active
Activity [2]: Dose-dependent effect
Activity [3]: 4.5%
Activity [4]: Non-Toxic
Activity [5]: Active
Activity [6]: Non-Toxic
Activity [7]: Non-Toxic
Activity [8]: 0.5%
viability at 0.005 µM [9]: 94.1%
Activity [10]: Active
Activity [11]: 0.9%
